Experimental data published in patent US20100092443A1, “NOVEL COMBINATIONS OF NITROGENATED HETEROCYCLIC ANTIBACTERIAL COMPOUNDS WITH OTHER ANTIBACTERIAL COMPOUNDS AND THE USE OF SAME AS DRUGS” (priority 2008, published 2010).
Values after ≈ are worked out from the molar mass of the structure shown. Like-named read-outs stand apart in the source and are kept apart here.

Experiments:
Type in all cases: cell-based
Pseudomonas aeruginosa = assay: MIC, dilutions in liquid medium, alone and combined with NXL105; conditions: Pseudomonas aeruginosa
Description: (§1) In vitro activity, method of dilutions in liquid medium:
A series of test 96-well microtiter plates are prepared in which the same quantity of sterile nutritive medium is distributed. Increasing quantities of the compound to be studied, namely the antibacterial compound alone and the inventive combination with the compound of formula (I) of example 1, are distributed in each plate in the respective proportions 2:1 and 4:1, and then each plate is inoculated with a bacterial strain of Pseudomonas aeruginosa. After 24 h of incubation in a 37° C. oven, growth inhibition is evaluated by transillumination, which makes it possible to determine the minimum inhibitory concentrations (MICS) expressed in μg/ml.

K. pneumoniae = assay: as above
Description: as §1
(§2) A series of test 96-well microtiter plates are prepared in which the same quantity of sterile nutritive medium is distributed. […] After 24 h of incubation in a 37° C. oven, growth inhibition is evaluated by transillumination, which makes it possible to determine the minimum inhibitory concentrations (MICS) expressed in μg/ml.

E. cloacae = assay: as above; conditions: Enterobacter cloacae
Description: as §1, §2

K. oxytoca = assay: as above; conditions: Klebsiella oxytoca, read-out: MIC
C. freundii = assay: as above; conditions: Citrobacter freundii
E. coli = assay: microbe, parasite or virus in culture; conditions: Escherichia coli
Description: as §1, §2

## C[C@@H](O)[C@H]1C(=O)N2C(C(=O)O)=C(S[C@@H]3CN[C@H](C(=O)N(C)C)C3)[C@H](C)[C@H]12 [Meropenem]
Pseudomonas aeruginosa; ATCC27853, P. aeruginosa ATCC 27853
  MIC: 1 µg/mL
Pseudomonas aeruginosa; P. aeruginosa 391HG2
  MIC: > 32 µg/mL
Pseudomonas aeruginosa; P. aeruginosa 391HG21
  MIC: > 32 µg/mL
Pseudomonas aeruginosa; P. aeruginosa 391HG38
  MIC: 32 µg/mL
Pseudomonas aeruginosa; P. aeruginosa 391HG39
  MIC: 0.06 µg/mL
Pseudomonas aeruginosa; P. aeruginosa 391HG58
  MIC: 32 µg/mL
Pseudomonas aeruginosa; P. aeruginosa 391HG118
  MIC: 8 µg/mL
Pseudomonas aeruginosa; P. aeruginosa 391HG123
  MIC: 32 µg/mL
Pseudomonas aeruginosa; P. aeruginosa 391HG158
  MIC: 32 µg/mL
Pseudomonas aeruginosa; P. aeruginosa 391HG271
  MIC: > 32 µg/mL
Pseudomonas aeruginosa; P. aeruginosa 391HG329
  MIC: > 32 µg/mL
Pseudomonas aeruginosa; P. aeruginosa 391K767
  MIC: 2 µg/mL
Pseudomonas aeruginosa; P. aeruginosa 391K1455
  MIC: 4 µg/mL
Pseudomonas aeruginosa; P. aeruginosa 391K1523
  MIC: 2 µg/mL
Pseudomonas aeruginosa; P. aeruginosa 391K1525
  MIC: 2 µg/mL
Pseudomonas aeruginosa; P. aeruginosa 391K1536
  MIC: 2 µg/mL
Pseudomonas aeruginosa; P. aeruginosa 391K2376
  MIC: 2 µg/mL
Pseudomonas aeruginosa; P. aeruginosa 391K2379
  MIC: 4 µg/mL
Pseudomonas aeruginosa; P. aeruginosa 391K2415
  MIC: 2 µg/mL
Pseudomonas aeruginosa; P. aeruginosa 391KB9
  MIC: 4 µg/mL
Pseudomonas aeruginosa; P. aeruginosa 391KB14
  MIC: 8 µg/mL
Pseudomonas aeruginosa; P. aeruginosa 391KB21
  MIC: 8 µg/mL
Pseudomonas aeruginosa; P. aeruginosa 391KB33
  MIC: 4 µg/mL
Pseudomonas aeruginosa; P. aeruginosa 391KB38
  MIC: 8 µg/mL
Pseudomonas aeruginosa; P. aeruginosa 391KB62
  MIC: > 32 µg/mL
Pseudomonas aeruginosa; P. aeruginosa 391KB68
  MIC: 1 µg/mL
Pseudomonas aeruginosa; P. aeruginosa 391KB90
  MIC: 16 µg/mL
Pseudomonas aeruginosa; P. aeruginosa 391KB91
  MIC: 16 µg/mL
Pseudomonas aeruginosa; P. aeruginosa 391KB99
  MIC: 16 µg/mL
Pseudomonas aeruginosa; P. aeruginosa 391KB103
  MIC: 8 µg/mL
Pseudomonas aeruginosa; P. aeruginosa 391KB105
  MIC: 4 µg/mL
Pseudomonas aeruginosa; P. aeruginosa 391KB106
  MIC: 4 µg/mL
Pseudomonas aeruginosa; P. aeruginosa 391KB107
  MIC: 32 µg/mL
Pseudomonas aeruginosa; P. aeruginosa 391KB114
  MIC: 16 µg/mL
Pseudomonas aeruginosa; P. aeruginosa 391KB127
  MIC: 2 µg/mL
Pseudomonas aeruginosa; P. aeruginosa 391KB135
  MIC: > 32 µg/mL
Pseudomonas aeruginosa; P. aeruginosa 391KB136
  MIC: > 32 µg/mL
Pseudomonas aeruginosa; P. aeruginosa 391KB137
  MIC: > 32 µg/mL
Pseudomonas aeruginosa; P. aeruginosa 391KB138
  MIC: > 32 µg/mL
Pseudomonas aeruginosa; P. aeruginosa 391KB139
  MIC: > 32 µg/mL
Pseudomonas aeruginosa; P. aeruginosa 391KB140
  MIC: 16 µg/mL
Pseudomonas aeruginosa; P. aeruginosa 391KB141
  MIC: > 32 µg/mL
Pseudomonas aeruginosa; P. aeruginosa 391KB142
  MIC: > 32 µg/mL
Pseudomonas aeruginosa; P. aeruginosa 391KB143
  MIC: > 32 µg/mL
Pseudomonas aeruginosa; P. aeruginosa 391KB144
  MIC: > 32 µg/mL
Pseudomonas aeruginosa; P. aeruginosa 391QBR2
  MIC: > 32 µg/mL
Pseudomonas aeruginosa; P. aeruginosa 391QBR3
  MIC: 32 µg/mL
Pseudomonas aeruginosa; P. aeruginosa 391QBR4
  MIC: 16 µg/mL
Pseudomonas aeruginosa; P. aeruginosa 391QBR5
  MIC: 32 µg/mL
Pseudomonas aeruginosa; P. aeruginosa 391QBR7
  MIC: 32 µg/mL
Pseudomonas aeruginosa; P. aeruginosa 391QBR8
  MIC: 16 µg/mL
Pseudomonas aeruginosa; P. aeruginosa 391QBR9
  MIC: 16 µg/mL
Pseudomonas aeruginosa; P. aeruginosa 391QBR10
  MIC: 4 µg/mL
Pseudomonas aeruginosa; P. aeruginosa C3719
  MIC: > 32 µg/mL
Pseudomonas aeruginosa; P. aeruginosa PA2192
  MIC: 8 µg/mL
K. pneumoniae; K. pneumoniae 236, SHV-5 + TEM-10
  MIC: 0.125 µg/mL
K. pneumoniae; K. pneumoniae 444, SHV-5 + TEM-2 + PER
  MIC: 0.125 µg/mL
K. pneumoniae; K. pneumoniae 1734, FOX-3 + TEM-1
  MIC: 0.125 µg/mL
K. pneumoniae; K. pneumoniae 9701, CMY-4 + TEM-1
  MIC: 0.125 µg/mL
K. pneumoniae; K. pneumoniae Tunisie clone K1, CTX-M-16 + OXA-1
  MIC: 0.125 µg/mL
K. pneumoniae; K. pneumoniae Tunisie clone K4, CTX-M-15 + TEM-1 + OXA-1
  MIC: 0.125 µg/mL
K. pneumoniae; Klebsiella pneumoniae
  MIC: 0.125 µg/mL
K. pneumoniae; Klebsiella pneumoniae, 24 h, K. pneumoniae 60, SHV-2 + TEM-2 + PER, read-out: MIC
  MIC: 0.06 µg/mL
K. pneumoniae; Klebsiella pneumoniae, 24 h, K. pneumoniae 157, SHV-5 + TEM-26, read-out: MIC
  MIC: ≤ 0.03 µg/mL
K. pneumoniae; Klebsiella pneumoniae, 24 h, K. pneumoniae 181, SHV-5 + TEM-10, read-out: MIC
  MIC: 4 µg/mL
K. pneumoniae; Klebsiella pneumoniae, 24 h, K. pneumoniae 238, SHV-2 + TEM-12 + CTX-M-2, read-out: MIC
  MIC: ≤ 0.03 µg/mL
K. pneumoniae; Klebsiella pneumoniae, 24 h, K. pneumoniae 253, SHV-2 + TEM-12 + CTX-M-2, read-out: MIC
  MIC: 0.06 µg/mL
K. pneumoniae; Klebsiella pneumoniae, 24 h, K. pneumoniae 427, SHV-1 + TEM-1B + CTX-M-3, read-out: MIC
  MIC: 0.06 µg/mL
K. pneumoniae; Klebsiella pneumoniae, 24 h, K. pneumoniae 441, SHV-1 + TEM-2 + PER, read-out: MIC
  MIC: 0.06 µg/mL
K. pneumoniae; Klebsiella pneumoniae, 24 h, K. pneumoniae 449, SHV-1 + TEM-2 + PER, read-out: MIC
  MIC: ≤ 0.03 µg/mL
K. pneumoniae; Klebsiella pneumoniae, 24 h, K. pneumoniae 465, TEM-1B + CTX-M-2, read-out: MIC
  MIC: 0.25 µg/mL
K. pneumoniae; Klebsiella pneumoniae, 24 h, K. pneumoniae KOL, MOX-2 + SHV-5 + TEM-1, read-out: MIC
  MIC: 0.06 µg/mL
K. pneumoniae; Klebsiella pneumoniae, 24 h, K. pneumoniae Patient 1BHR, VIM-4 + CTX-M-15 = CMY-4 + TEM-1, read-out: MIC
  MIC: 16 µg/mL
K. pneumoniae; Klebsiella pneumoniae, 24 h, K. pneumoniae Patient F, VIM-1 + SHV-5, read-out: MIC
  MIC: > 32 µg/mL
K. pneumoniae; Klebsiella pneumoniae, 24 h, K. pneumoniae SLK54, ACC-1 + TEM-1, read-out: MIC
  MIC: 0.06 µg/mL
K. pneumoniae; Klebsiella pneumoniae, 24 h, K. pneumoniae TN58467, DHA-1 + SHV-2a + TEM-1, read-out: MIC
  MIC: 0.25 µg/mL
K. pneumoniae; Klebsiella pneumoniae, ATCC700603, K. pneumoniae ATCC 700603, SHV-18, read-out: MIC
  MIC: 0.06 µg/mL
K. pneumoniae; Klebsiella pneumoniae, K. pneumoniae 26, SHV-5, read-out: MIC
  MIC: ≤ 0.03 µg/mL
K. pneumoniae; Klebsiella pneumoniae, K. pneumoniae CL5761, KPC-3, read-out: MIC
  MIC: > 32 µg/mL
K. pneumoniae; Klebsiella pneumoniae, K. pneumoniae CL5762, KPC-3, read-out: MIC
  MIC: > 32 µg/mL
K. pneumoniae; Klebsiella pneumoniae, K. pneumoniae CL5763, KPC-3, read-out: MIC
  MIC: > 32 µg/mL
K. pneumoniae; Klebsiella pneumoniae, K. pneumoniae VA8, KPC-3, read-out: MIC
  MIC: ≤ 0.03 µg/mL
K. pneumoniae; Klebsiella pneumoniae, K. pneumoniae VAKP, KPC-2, read-out: MIC
  MIC: 32 µg/mL
K. pneumoniae; Klebsiella pneumoniae, K. pneumoniae YC, KPC-2, read-out: MIC
  MIC: 32 µg/mL
E. cloacae
  MIC: 0.125 µg/mL
E. cloacae; 24 h, E. cloacae 7506, KPC-2 + TEM-1 + KLUC-2, read-out: MIC
  MIC: 16 µg/mL
E. cloacae; E. cloacae (no alias), AmpC, read-out: MIC
  MIC: 0.5 µg/mL
K. oxytoca; K. oxytoca 1431, TEM-129
  MIC: 0.06 µg/mL
K. oxytoca; K. oxytoca 16944, OXY-2, TEM-1
  MIC: 0.06 µg/mL
C. freundii
  MIC: 0.125 µg/mL
C. freundii; 24 h, C. freundii (no alias), AmpC + TEM-1, read-out: MIC
  MIC: 0.06 µg/mL
C. freundii; C. freundii (no alias, table row r121), AmpC, read-out: MIC
  MIC: 0.25 µg/mL
C. freundii; C. freundii (no alias, table row r122), AmpC, read-out: MIC
  MIC: 0.06 µg/mL
C. freundii; C. freundii (no alias, table row r125), AmpC, read-out: MIC
  MIC: 0.06 µg/mL
E. coli; 24 h, E. coli 2138, KPC-2 + TEM-1
  MIC: 8 µg/mL
E. coli; 24 h, E. coli (no alias), CTX-M-15 + TEM-1 + OXA-1
  MIC: ≤ 0.03 µg/mL
E. coli; 24 h, E. coli IND, VEB-1 + CMY-2
  MIC: 0.06 µg/mL
E. coli; 24 h, E. coli TN06, CTX-M-2 + TEM-1
  MIC: 0.06 µg/mL
E. coli; 24 h, E. coli TN13, CTX-M-14 + CMY-2 + TEM-1
  MIC: 0.25 µg/mL
E. coli; 24 h, E. coli Tunisie clone E4, CTX-M-16 + TEM-1
  MIC: 0.125 µg/mL
E. coli; E. coli (no alias), Cephalosporinase, read-out: MIC
  MIC: 0.06 µg/mL (≈ 0.156 µM)
E. coli; E. coli (no alias), SHV-4
  MIC: ≤ 0.03 µg/mL
E. coli; E. coli (no alias), TEM-3
  MIC: ≤ 0.03 µg/mL
